These compounds were tested against T1, TLR8 (Homo sapiens, UniProt Q9NR97) (assay: THP-1 TLR8 Antagonist TNFalpha TR-FRET Assay). Details: THP-1 cells with R848 agonist, 18-20 hrs; TNFalpha TR-FRET read-out.
T1 sequence (Q9NR97 27-1041): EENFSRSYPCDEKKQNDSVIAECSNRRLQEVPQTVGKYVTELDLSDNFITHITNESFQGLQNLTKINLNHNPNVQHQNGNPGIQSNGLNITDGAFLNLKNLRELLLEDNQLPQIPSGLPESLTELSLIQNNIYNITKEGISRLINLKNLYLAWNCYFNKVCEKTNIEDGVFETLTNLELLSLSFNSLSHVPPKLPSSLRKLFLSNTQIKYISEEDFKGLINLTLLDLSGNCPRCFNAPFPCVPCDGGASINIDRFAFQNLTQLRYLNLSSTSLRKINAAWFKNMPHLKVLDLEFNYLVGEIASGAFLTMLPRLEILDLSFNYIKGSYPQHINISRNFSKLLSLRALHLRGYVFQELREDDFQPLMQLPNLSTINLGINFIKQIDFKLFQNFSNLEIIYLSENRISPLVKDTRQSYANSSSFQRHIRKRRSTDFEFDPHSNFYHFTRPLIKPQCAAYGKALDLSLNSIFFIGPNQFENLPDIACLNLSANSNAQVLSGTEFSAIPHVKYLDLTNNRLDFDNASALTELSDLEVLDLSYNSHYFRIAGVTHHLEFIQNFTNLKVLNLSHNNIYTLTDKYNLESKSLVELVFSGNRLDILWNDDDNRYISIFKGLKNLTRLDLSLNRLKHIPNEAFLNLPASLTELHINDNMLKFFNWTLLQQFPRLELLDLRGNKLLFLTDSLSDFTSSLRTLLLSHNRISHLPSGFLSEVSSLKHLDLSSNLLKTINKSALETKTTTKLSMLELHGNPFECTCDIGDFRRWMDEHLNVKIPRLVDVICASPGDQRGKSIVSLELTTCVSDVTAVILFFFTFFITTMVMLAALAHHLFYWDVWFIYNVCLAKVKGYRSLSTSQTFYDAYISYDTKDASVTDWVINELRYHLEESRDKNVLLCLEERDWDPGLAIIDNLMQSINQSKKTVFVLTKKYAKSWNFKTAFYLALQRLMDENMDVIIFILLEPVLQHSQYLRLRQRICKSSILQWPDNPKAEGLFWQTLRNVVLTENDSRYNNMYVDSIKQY
Assay type: cell-based
Parameters: endogenous in cells
Method: Cell-based assay: • 1) THP-1cells were cultured in RPMI 1640 with 10% FBS, 10 mM HEPES, 1 mM Sodium Pyruvate, 1% Penicillin-Streptomycin L-glutamine, and 1% Non-Essential Amino Acids; • 2) 3 sets of different passages of THP-1cells in assay media were pooled, counted, and resuspended in the same media as culture media, but with 5% FBS; • 3) Cells were diluted to 100,000 cells/well (30 μl/well) and the R848 agonist was diluted to 25 μM in 10 μl/well in media; • 4) The cell and agonist dilutions were combined and 40 μl/well were added to 384-well flat bottom Greiner assay plates containing test compounds in DMSO, which were Echo pre-spotted at 50 nL per well with a 8 mM top dose and 10 point 1:3 serial dilutions—10 μM final top dose; • 5) The plates were incubated overnight for 18-20 hrs at 37 degrees with 5% CO2; • 6) The plates were then centrifuged at 1000 rpm for 2 min at rt; • 7) 10 μl/well of supernatants were transferred to 384-well low volume white Greiner proxiplates; and • 8) TNFα levels were measured using the TR-FRET assay described below.
• 1) Cisbio Human TNFalpha kit, 20,000 tests (62TNFPEC), and Greiner Bio-One LIA-white TC 384 well small volume plates (cat #784080) were used; • 2) the Anti-TNFalpha Cryptate conjugate and the Anti-TNFalpha XL665 conjugate were diluted 1:20 in Reconstitution Buffer; • 3) a 1:1 mixture of 5 μl/well Anti-TNFalpha Cryptate conjugate and 5 μl/well Anti-TNFalpha XL665 conjugate was prepared; • 4) 10 μl/well HTRF dilution mastermix were added to 10 μl of transferred supernatant samples in proxiplates; • 5) The plates were incubated for 3 hrs at rt in the dark; and • 6) the levels of TNFalpha production was measured using an Envision plate reader (665 nm (emmission)/590 nm (excitation)).

Going from Cn1ncc2c(N3CCc4c(cnn4CC45CCC(N)(CC4)CC5)C3)nc(N)nc21 [compound 11, 4-(1-((4-aminobicyclo[2.2.2]octan-1-yl)methyl)-6,7-dihydro-1H-pyrazolo[4,3-c]pyridin-5(4H)-yl)-1-methyl-1H-pyrazolo[3,4-d]pyrimidin-6-amine] to Cn1ncc2c(N3CCc4nn(CC56CCC(N)(CC5)CC6)cc4C3)nc(N)nc21 [compound 12, 4-(2-((4-aminobicyclo[2.2.2]octan-1-yl)methyl)-6,7-dihydro-2H-pyrazolo[4,3-c]pyridin-5(4H)-yl)-1-methyl-1H-pyrazolo[3,4-d]pyrimidin-6-amine], the IC50 rises from 8.23 µM to > 10 µM. The first is the more potent here.

With Cc1c2c(nn1CC13CCC(N)(CC1)CC3)CCN(c1nc(N)nc3c1cnn3C)C2 [compound 14, 4-(2-((4-aminobicyclo[2.2.2]octan-1-yl)methyl)-3-methyl-6,7-dihydro-2H-pyrazolo[4,3-c]pyridin-5(4H)-yl)-1-methyl-1H-pyrazolo[3,4-d]pyrimidin-6-amine] the IC50 was > 10 µM.

— patent publication US20240376099A1, “COMPOUNDS AND COMPOSITIONS AS INHIBITORS OF ENDOSOMAL TOLL-LIKE RECEPTORS” (Novartis AG, priority 2016, published 2024)
